Results as given in patent US7842324B2 (Senomyx, Inc., priority 2005, dated 2010).
pEC50: −log10 of the molar value.

Each compound was assayed against T1, hT1R2/hT1R3 sweet receptor expressed in HEK293 cell line (Homo sapiens, UniProt Q7RTX0+Q8TE23) (assay: In vitro hT1R2/hT1R3-HEK293 taste receptor activation assay (FLIPR)). Conditions: read-out: EC50 for activation of a hT1R2/hT1R3 sweet receptor expressed in HEK293 cell line.
T1 construct: expressed in transfected cells; host or cells: HEK293 derivative stably expressing Gα15 and hT1R2/hT1R3, clone S-9
T1 sequence (Q8TE23 20-839): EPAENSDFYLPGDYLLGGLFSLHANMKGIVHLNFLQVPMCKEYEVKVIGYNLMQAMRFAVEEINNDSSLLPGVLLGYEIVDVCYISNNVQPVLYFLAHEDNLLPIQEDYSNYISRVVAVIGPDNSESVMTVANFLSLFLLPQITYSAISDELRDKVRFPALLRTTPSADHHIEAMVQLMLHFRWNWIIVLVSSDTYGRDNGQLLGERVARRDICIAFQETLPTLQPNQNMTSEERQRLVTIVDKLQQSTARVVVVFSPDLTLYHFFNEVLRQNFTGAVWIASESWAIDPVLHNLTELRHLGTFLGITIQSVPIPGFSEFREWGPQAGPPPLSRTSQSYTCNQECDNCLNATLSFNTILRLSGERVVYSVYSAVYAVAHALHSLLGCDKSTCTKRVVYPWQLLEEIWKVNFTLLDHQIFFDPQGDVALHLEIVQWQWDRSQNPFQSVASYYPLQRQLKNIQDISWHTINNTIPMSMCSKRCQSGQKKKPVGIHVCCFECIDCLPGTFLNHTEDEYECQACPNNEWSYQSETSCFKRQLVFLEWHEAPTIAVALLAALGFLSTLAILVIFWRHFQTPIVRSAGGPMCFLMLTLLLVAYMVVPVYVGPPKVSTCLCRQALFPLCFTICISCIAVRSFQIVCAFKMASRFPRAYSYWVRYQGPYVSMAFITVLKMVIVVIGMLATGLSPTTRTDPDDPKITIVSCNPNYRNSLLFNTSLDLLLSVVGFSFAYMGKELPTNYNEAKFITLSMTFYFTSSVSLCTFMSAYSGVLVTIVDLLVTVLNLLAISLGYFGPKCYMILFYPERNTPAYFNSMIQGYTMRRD
T1 sequence (Q7RTX0 21-852): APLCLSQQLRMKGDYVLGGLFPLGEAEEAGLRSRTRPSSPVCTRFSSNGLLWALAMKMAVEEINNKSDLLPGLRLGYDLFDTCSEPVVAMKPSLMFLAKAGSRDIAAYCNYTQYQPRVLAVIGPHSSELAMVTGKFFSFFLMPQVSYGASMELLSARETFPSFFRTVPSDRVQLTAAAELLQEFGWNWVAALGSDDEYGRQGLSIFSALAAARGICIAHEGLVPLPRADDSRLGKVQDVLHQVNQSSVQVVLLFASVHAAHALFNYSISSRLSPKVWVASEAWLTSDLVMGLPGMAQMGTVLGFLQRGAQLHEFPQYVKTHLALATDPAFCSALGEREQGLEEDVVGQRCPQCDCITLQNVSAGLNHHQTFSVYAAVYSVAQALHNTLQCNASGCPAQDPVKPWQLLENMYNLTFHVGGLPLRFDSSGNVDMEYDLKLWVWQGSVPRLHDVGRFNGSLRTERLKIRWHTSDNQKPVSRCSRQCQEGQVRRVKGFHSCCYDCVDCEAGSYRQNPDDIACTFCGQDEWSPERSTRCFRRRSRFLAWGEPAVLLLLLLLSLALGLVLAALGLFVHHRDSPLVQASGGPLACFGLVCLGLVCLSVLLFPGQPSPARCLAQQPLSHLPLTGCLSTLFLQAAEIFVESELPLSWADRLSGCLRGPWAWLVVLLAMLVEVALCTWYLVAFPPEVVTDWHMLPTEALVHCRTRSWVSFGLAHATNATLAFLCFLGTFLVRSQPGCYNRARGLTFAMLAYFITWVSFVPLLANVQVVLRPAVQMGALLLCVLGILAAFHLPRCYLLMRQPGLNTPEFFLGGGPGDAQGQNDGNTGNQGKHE
Assay type: cell-based
Protocol: An HEK293 cell line derivative (Chandrashekar et al., Cell (2000) 100:703-711) that stably expresses Gα15 and hT1R2/hT1R3 (Li et al., Proc Natl Acad Sci USA (2002) 99:4692-4696), see also PCT Publication No. WO 03/001876 A2) was used to identify compounds with sweet taste enhancing properties.
Compounds covered in this document were initially selected based on their activity on the hT1R2/hT1R3-HEK293-Gα15 cell line (Li et al. vide supra). Activity was determined using an automated fluorometric imaging assay on a FLIPR instrument ([…], Molecular Devices, Sunnyvale, Calif.) (designated FLIPR assay). Cells from one clone (designated S-9 cells) were seeded into 384-well plates (at approximately 50,000 cells per well) in a medium containing DMEM Low Glucose (Invitrogen, Carlsbad, Calif.), 10% dialyzed fetal bovine serum (Invitrogen, Carlsbad, Calif.), 100 Units/ml Penicillin G, and 100 μg/ml Streptomycin (Invitrogen, Carlsbad, Calif.) (Li et al. vide supra) see also PCT Publication No. WO 03/001876 A2). S-9 cells were grown for 24 hours at 37° C. S-9 cells were then loaded with the calcium dye Fluo-3AM (Molecular Probes, Eugene, Oreg.), 4 μM in a phosphate buffered saline (D-PBS) (Invitrogen, Carlsbad, Calif.), for 1 hour at room temperature. After replacement with 25 μl D-PBS, stimulation was performed in the FLIPR instrument and at room temperature by the addition of 25 μl D-PBS supplemented with different stimuli at concentrations corresponding to twice the desired final level. Receptor activity was quantified by determining the maximal fluorescence increases (using a 480 nm excitation and 535 nm emission) after normalization to basal fluorescence intensity measured before stimulation.
For dose-responses analysis, stimuli were presented in duplicates at 10 different concentrations ranging from 60 nM to 30 μM. Activities were normalized to the response obtained with 400 mM D-fructose, a concentration that elicits maximum receptor response. EC50s were determined using a non-linear regression algorithm (using a Senomyx, Inc. software), where the Hill slope, bottom asymptotes and top asymptotes were allow to vary. Identical results were obtained when analyzing the dose-response data using commercially available software for non-linear regression analysis such as GraphPad PRISM (San Diego, Calif.).

SMILES	pEC50
CC(C)CNC(=O)C(C)(C)c1ccc(-c2ccoc2)cc1 [Compound 1, 2-(4-(Furan-3-yl)phenyl)-N-isobutyl-2-methylpropanamide]	6.47
CC(C)CNC(=O)C(C)(C)c1ccc(-c2ccsc2)cc1 [Compound 7, N-isobutyl-2-methyl-2-(4-(thiophen-3-yl)phenyl)propanamide]	5.91
CC(C)CNC(=O)C(C)(C)c1ccc(-c2cccc([N+](=O)[O-])c2)cc1 [Compound 8, N-isobutyl-2-methyl-2-(3′-nitrobiphenyl-4-yl)propanamide]	6.40
CC(C)CNC(=O)C(C)(C)c1ccc(-c2cccc(C#N)c2)cc1 [Compound 9, 2-(3′-cyanobiphenyl-4-yl)-N-isobutyl-2-methylpropanamide]	6.70
COC(=O)c1cccc(-c2ccc(C(C)(C)C(=O)NCC(C)C)cc2)c1 [Compound 10, Methyl 4′-(1-(isobutylamino)-2-methyl-1-oxopropan-2-yl)biphenyl-3-carboxylate]	6.05
CC(C)CNC(=O)C(C)(C)c1ccc(-c2cccc(O)c2)cc1 [Compound 11, 2-(3′-hydroxybiphenyl-4-yl)-N-isobutyl-2-methylpropanamide]	5.72
Cc1cccc(-c2ccc(C(C)(C)C(=O)NCC(C)C)cc2)c1 [Compound 15, N-isobutyl-2-methyl-2-(3′-methylbiphenyl-4-yl)propanamide]	5.52
CCOC(=O)c1cccc(-c2ccc(C(C)(C)C(=O)NCC(C)C)cc2)c1 [Compound 16, Ethyl 4′-(1-(isobutylamino)-2-methyl-1-oxopropan-2-yl)biphenyl-3-carboxylate]	5.59
CC(C)CNC(=O)C(C)(C)c1ccc(-c2cccc(C(=O)N(C)C)c2)cc1 [Compound 17, 2-(3′-((dimethylamino)carbonyl)biphenyl-4-yl)-N-isobutyl-2-methylpropanamide]	5.57
CC(C)CNC(=O)C(C)(C)c1ccc(-c2cccc(OC(C)C)c2)cc1 [Compound 18, N-isobutyl-2-(3′-isopropoxybiphenyl-4-yl)-2-methylpropanamide]	5.38
COc1cccc(-c2ccc(C(C)(C)C(=O)NCC(C)C)cc2)c1 [Compound 19, N-isobutyl-2-(3′-methoxybiphenyl-4-yl)-2-methylpropanamide]	5.37
CCC(CC)NC(=O)C(C)(C)c1ccc(-c2cncc(C#N)c2)cc1 [Compound 21, 2-(4-(5-cyanopyridin-3-yl)phenyl)-2-methyl-N-(pentan-3-yl)propanamide]	7.15
CC(C)[C@@H](C)NC(=O)C(C)(C)c1ccc(-c2cncc(C#N)c2)cc1 [Compound 22]	6.85
CCOCc1cncc(-c2ccc(C(C)(C)C(=O)NCC(C)C)cc2)c1 [Compound 26, 2-(4-(5-(ethoxymethyl)pyridin-3-yl)phenyl)-N-isobutyl-2-methylpropanamide]	6.59
CC(C)CNC(=O)C(C)(C)c1ccc(-n2cccc2)cc1 [Compound 28, 2-(4-(1H-pyrrol-1-yl)phenyl)-N-isobutyl-2-methylpropanamide]	6.46
COCc1cncc(-c2ccc(C(C)(C)C(=O)NCC(C)C)cc2)n1 [Compound 29, N-isobutyl-2-(4-(6-(methoxymethyl)pyrazin-2-yl)phenyl)-2-methylpropanamide]	6.59
CC(C)CNC(=O)C(C)(C)c1cnn(-c2ccccc2)c1 [Compound 31, N-isobutyl-2-methyl-2-(1-phenyl-1H-pyrazol-4-yl)propanamide]	4.83
CC(C)CNC(=O)C(C)(C)c1cc(-c2ccccc2)no1 [Compound 33, N-isobutyl-2-methyl-2-(3-phenylisoxazol-5-yl)propanamide]	5.17
Cc1cscc1-c1ccc(C(C)(C)C(=O)NCC(C)C)cc1O [Compound 35, 2-(3-hydroxy-4-(4-methylthiophen-3-yl)phenyl)-N-isobutyl-2-methylpropanamide]	5.98
CC(C)CNC(=O)C(C)(C)c1ccc(-c2cncc(C#N)c2)nc1 [Compound 40, 2-(5′-cyano-2,3′-bipyridin-5-yl)-N-isobutyl-2-methylpropanamide]	5.66

Further lines, results first:

pEC50	SMILES
5.55	CC(C)CNC(=O)C(C)c1ccc(-c2ccccc2)c(F)c1 (stereo not drawn) [Compound 3, 2-(2-fluorobiphenyl-4-yl)-N-isobutylpropanamide]
5.34	CC(C(=O)NCc1ccco1)c1ccc(-c2ccccc2)c(F)c1 (stereo not drawn) [Compound 4, 2-(2-fluorobiphenyl-4-yl)-N-(furan-2-ylmethyl)propanamide]
5.19	COCCNC(=O)C(C)c1ccc(-c2ccccc2)c(F)c1 (stereo not drawn) [Compound 5, 2-(2-fluorobiphenyl-4-yl)-N-(2-methoxyethyl)propanamide]
5.42	CCC(COC)NC(=O)C(C)(C)c1ccc(-c2ccccc2)c(F)c1 (stereo not drawn) [Compound 6, 2-(2-fluorobiphenyl-4-yl)-N-(1-methoxybutan-2-yl)-2-methylpropanamide]
5.72	Cc1ccccc1-c1ccc(C(C)(C)C(=O)NCC(C)C)cc1 [Compound 12, N-isobutyl-2-methyl-2-(2′-methylbiphenyl-4-yl)propanamide]
5.66	CC(C)CNC(=O)C(C)(C)c1ccc(-c2ccccc2N)cc1 [Compound 13, 2-(2′-aminobiphenyl-4-yl)-N-isobutyl-2-methylpropanamide]
5.72	CC(C)CNC(=O)C(C)(C)c1ccc(-c2ccccc2C#N)cc1 [Compound 14, 2-(2′-cyanobiphenyl-4-yl)-N-isobutyl-2-methylpropanamide]
5.12	CC(C)CNC(=O)C(NC(=O)OC(C)(C)C)c1ccc(-c2ccccc2)cc1 (stereo not drawn) [Compound 24, tert-butyl 1-(biphenyl-4-yl)-2-(isobutylamino)-2-oxoethylcarbamate]
5.98	CC(C)CNC(=O)C(C)(C)c1ccc(-c2ccccc2CO)cc1 [Compound 36, 2-(2′-(hydroxymethyl)biphenyl-4-yl)-N-isobutyl-2-methylpropanamide]
6.09	CC(C)CNC(=O)C(C)(C)c1ccc(-c2ccccc2C=O)cc1 [Compound 37, 2-(2′-formylbiphenyl-4-yl)-N-isobutyl-2-methylpropanamide]
